Measurements as given in PMC3725995 (Bioorganic & medicinal chemistry letters, 2010).
Read-outs that look alike come from different tables or passages of the source.

Legend:
[1] = molecular target: system LAT1 transporter of the blood–brain barrier (Rattus norvegicus, UniProt Q63016); test: in situ rat brain perfusion: inhibition of L-[14C]-leucine uptake into rat brain; conditions: in vivo
system LAT1 transporter = conditions: cited from earlier work; for Ki: read-out: Ki for the system L transporter
[2] = cited from earlier work
[3] = cited from earlier work; remark: listed apart in the source
[4] = read-out: Km for system LAT1 transporter

system LAT1 transporter of the blood–brain barrier, sequence (Q63016 whole entry, the tested form may be a part): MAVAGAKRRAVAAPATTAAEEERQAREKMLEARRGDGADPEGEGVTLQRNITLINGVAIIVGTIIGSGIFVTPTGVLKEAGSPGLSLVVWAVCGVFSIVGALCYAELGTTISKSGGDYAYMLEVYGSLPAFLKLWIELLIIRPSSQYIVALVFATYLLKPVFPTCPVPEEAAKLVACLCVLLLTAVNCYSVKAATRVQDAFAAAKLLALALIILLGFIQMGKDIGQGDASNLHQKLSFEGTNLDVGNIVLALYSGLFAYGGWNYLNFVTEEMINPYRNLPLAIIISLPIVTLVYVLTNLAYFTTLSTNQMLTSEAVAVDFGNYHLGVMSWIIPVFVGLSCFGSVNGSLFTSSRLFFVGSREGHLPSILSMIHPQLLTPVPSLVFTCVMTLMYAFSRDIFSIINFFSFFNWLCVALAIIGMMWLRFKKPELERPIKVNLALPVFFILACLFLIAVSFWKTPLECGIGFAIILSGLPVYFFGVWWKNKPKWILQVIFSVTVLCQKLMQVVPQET
system LAT1 transporter of the blood–brain barrier, sequence (Q794F9 whole entry partner, the tested form may be a part): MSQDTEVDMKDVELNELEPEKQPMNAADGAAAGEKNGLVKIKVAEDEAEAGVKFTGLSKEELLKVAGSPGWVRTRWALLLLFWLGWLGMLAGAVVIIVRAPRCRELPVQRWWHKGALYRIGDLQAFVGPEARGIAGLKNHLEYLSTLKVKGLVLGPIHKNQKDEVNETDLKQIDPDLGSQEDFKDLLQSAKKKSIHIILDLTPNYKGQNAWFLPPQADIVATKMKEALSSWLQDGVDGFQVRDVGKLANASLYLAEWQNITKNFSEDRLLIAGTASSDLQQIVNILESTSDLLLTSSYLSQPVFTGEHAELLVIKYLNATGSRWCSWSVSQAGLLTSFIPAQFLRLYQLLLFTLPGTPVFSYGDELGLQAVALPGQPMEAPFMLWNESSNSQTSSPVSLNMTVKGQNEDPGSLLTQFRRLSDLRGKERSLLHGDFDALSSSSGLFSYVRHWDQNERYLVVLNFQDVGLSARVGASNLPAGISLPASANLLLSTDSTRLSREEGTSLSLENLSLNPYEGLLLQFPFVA

SMILES | times lower affinity for the system LAT1 transporter than 5c [1] [times] | Km (system LAT1 transporter; [4]) [µM] | Ki (system LAT1 transporter) [µM] | further results
NC1(C(=O)O)CC2CC1c1cc(N(CCCl)CCCl)ccc12 (mixture of isomers) [compound 7, (±)-2-endo-amino-bis(2-chloroethyl)-7′-aminobenzobicyclo[2.2.1]heptane-2-exo-carboxylic acid] | 25 | – | – | –
NC1(C(=O)O)CCc2ccccc2C1 (racemic) [compound 3, DL-2-amino-1,2,3,4,-tetrahydronaphthoic acid, reference compound] | – | 7.1 | – | –
NC1(C(=O)O)CCc2c(cccc2N(CCCl)CCCl)C1 (centres unmarked) [5a] | 100 | – | ~25 | –
NC1(C(=O)O)CCc2ccc(N(CCCl)CCCl)cc2C1 (centres unmarked) [5c] | – | 0.19 | ~0.2 | myelosuppressive activity compared to melphalan [2]: reduced; in vitro antitumor activity compared to melphalan [3]: enhanced; Vmax of uptake into brain by blood–brain barrier system LAT1 transporter (system LAT1 transporter): 0.26 nmol/min/g
N[C@@H](Cc1ccc(N(CCCl)CCCl)cc1)C(=O)O [compound 2, Melphalan, reference compound] | – | – | – | Km (system LAT1 transporter; read-out: Km for system LAT1, estimated): 90 to 150 µM
NC1(C(=O)O)CC2CCC1C2 (centres unmarked) [compound 4, reference compound] | – | – | – | affinity for the system LAT1 transporter (system LAT1 transporter; in vivo): good affinity
